Measurements published in US20070141203A1, “Beverages containing water-soluble vitamin E” (priority 2003, published 2007).

Experiments:
[1] = Visual appearance / dissolution of vitamin E-containing components in demineralized water, on preparation and during storage; format: physicochemical; conditions: about 150 ppm in demineralized water; for Appearance / dissolution on preparation: after homogenizing or stirring; for Appearance during / after storage: six weeks at ambient temperature
Protocol: (§1) Sample 1: Vitamin E oil (0.15 g) was added to 1000 g of demineralized water. The mixture was homogenized for approximately 60 minutes using a Gifford-Wood homogenizer, Model 1 L form Greerco Corporation. The sample was very cloudy. The turbidity of the sample was measured using a Hach turbidimeter Model Ratio/XR. The turbidity of the demineralized water was also measured prior to addition of the vitamin E. The sample was stored at ambient temperature for six weeks. […] The sample was shaken well and the turbidity measured.
(§2) Sample 2: Vitamin E acetate oil (0.25 g) from Sigma-Aldrich was added to 1681 g of demineralized water. […] The turbidity of the dispersion was measured and then again after storage for six weeks at ambient temperature.
(§3) Sample 3: Vitamin E succinate powder (0.27 g) from Sigma-Aldrich was added to 1792 g of demineralized water. The mixture was homogenized for approximately 60 minutes. […] The turbidity of the dispersion was measured and then again after storage for six weeks at ambient temperature.
(§4) This solution was stirred at ambient temperature using a magnetic stirrer for several minutes. […] The turbidity of the solution was measured and then measured again after storage at ambient temperature for six weeks.
(§5) Sample 6: To 1790 g of demineralized water was added 0.27 g of a mixture consisting of d,l-α-tocopheryl acetate, modified food starch, and silica. This product is commercially available from Roche Vitamins, Inc., under the name “Dry Vitamin E 15% CC”. The aqueous mixture was agitated for about thirty minutes using a magnetic stirrer. […] The turbidity of the solution was measured and then re-measured after storage for six weeks at ambient temperature.
(§6) Sample 7: To 1802 g of demineralized water was added 0.27 g of a mixture consisting of d-α-tocopheryl acetate, Polysorbate 60, and ethyl alcohol. This product is commercially available from ADM under the name “E 230 Clear®”. The mixture was agitated for about ten minutes using a magnetic stirrer. […] The turbidity of the solution was measured and then re-measured after storage for six weeks at ambient temperature.

[2] = Turbidity of aqueous dispersions and solutions of vitamin E-containing components in demineralized water (Hach turbidimeter Model Ratio/XR); format: physicochemical; conditions: 150 +/- 5 ppm in demineralized water; for Turbidity (Initially doped water): initial; for Turbidity (6 wks after doping): six weeks at ambient temperature
Protocol: Preparation of aqueous dispersions and solutions of vitamin E-containing components.
as §1, §2, §3, §4, §5, §6

Row | Turbidity (Initially doped water) [2] | Turbidity (6 wks after doping) [2] | Structure (SMILES) | Appearance / dissolution on preparation [1] | Appearance during / after storage [1]
1 | 55 NTU | 68 NTU | Cc1c(C)c2c(c(C)c1O)CC[C@@](C)(CCC[C@H](C)CCC[C@H](C)CCCC(C)C)O2 [Sample 1, d-α-Tocopherol] | very cloudy | an immiscible layer of oil formed on top of the water
2 | 52 NTU | 61 NTU | CC(=O)Oc1c(C)c(C)c2c(c1C)CC[C@@](C)(CCC[C@H](C)CCC[C@H](C)CCCC(C)C)O2 [Sample 2, d-α-Tocopherol acetate] | some immiscible oil droplets remained on the surface of the water | Immiscible oil droplets were still on the surface of the water
3 | 8 NTU | 22 NTU | Cc1c(C)c2c(c(C)c1OC(=O)CCC(=O)O)CCC(C)(CCCC(C)CCCC(C)CCCC(C)C)O2 (stereo not drawn) [Sample 3, d,l-α-Tocopherol succinate] | A small amount of powder continued to float on the surface of the water | A small amount of powder continued to reside on the surface of the water
